We go through two molecules from article PMC2801561 (Cell, 2009).

Experiment [1] concerns the target GST-RhoBTB3 Rho domain (residues 1-220) (Homo sapiens, UniProt O94955, N138D). As to the kind of experiment: [γ-32P]ATP hydrolysis. In kind it is biochemical. The settings on record: MgCl2; labelled compound; 20 nM protein.
Experiment [2] has as its target T1, TIP47 (endogenous, K562) (human (endogenous in K562)), O60664.
T1 chain: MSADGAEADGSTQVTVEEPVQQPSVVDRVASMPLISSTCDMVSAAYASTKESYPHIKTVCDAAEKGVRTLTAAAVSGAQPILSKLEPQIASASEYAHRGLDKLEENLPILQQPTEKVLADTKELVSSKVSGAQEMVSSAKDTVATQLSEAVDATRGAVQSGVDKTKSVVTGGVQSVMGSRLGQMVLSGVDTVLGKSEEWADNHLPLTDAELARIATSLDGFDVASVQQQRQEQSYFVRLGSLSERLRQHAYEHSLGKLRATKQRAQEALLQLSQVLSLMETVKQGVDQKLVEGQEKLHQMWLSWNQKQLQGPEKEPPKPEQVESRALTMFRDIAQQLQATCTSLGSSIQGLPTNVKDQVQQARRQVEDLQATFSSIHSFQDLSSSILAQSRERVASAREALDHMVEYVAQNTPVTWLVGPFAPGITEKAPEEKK
As to the kind of experiment: native gel or EMSA. The following applies: remark: other sources report otherwise. A general note: In EMSA bound probe runs differently from free probe, usually more slowly.

Sequence of GST-RhoBTB3 Rho domain (residues 1-220) (O94955 1-220 N138D): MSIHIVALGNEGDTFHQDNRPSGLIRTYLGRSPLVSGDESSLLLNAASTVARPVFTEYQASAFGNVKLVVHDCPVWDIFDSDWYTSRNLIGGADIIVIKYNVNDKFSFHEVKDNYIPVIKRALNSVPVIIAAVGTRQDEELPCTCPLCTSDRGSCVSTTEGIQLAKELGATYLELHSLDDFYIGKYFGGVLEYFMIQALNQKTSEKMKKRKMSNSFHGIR

For `Nc1ncnc2c1ncn2[C@@H]1O[C@H](COP(=O)(O)OP(=O)(O)OP(=O)(O)O)[C@@H](O)[C@H]1O` [ATP], the “[γ-32P]ATP hydrolysis” value in experiment [1] is “reverted to the D found in most other small GTPases (N138D), significantly less binding”.

B1: TIP47 (endogenous, K562), O60664 1-434 (natural protein)
chain: T1 chain
On to B1, for which the stoichiometry N in experiment [2] stood at 2.

What is called stoichiometry N is a count of units in the complex or per binding partner.
